Data taken from US10301288B2, “Kinase inhibitors” (Topivert Pharma Limited, priority 2013, dated 2019).
Like-named read-outs stand apart in the source and are kept apart here.

Assays:
[1] = Analysis of metabolites in hepatocytes; format: in vitro ADME, rat, dog, Cynomolgus macaque, human; conditions: 10 μM, hepatocytes of four species, 0, 60 and 90 minutes
Protocol: Studies were conducted by BioFocus (Saffron Walden, UK) to determine the metabolic fate of the compound of Example 2 following incubation with rat, dog, Cynomolgus macaque or human hepatocytes.
Sample replicates were pooled prior to analysis.
Potential metabolites were identified using time-of-flight (TOF) and triple quadruple (TQ) mass spectrometers.

HT29 cells = test: (d) IL-1β-induced IL-8 release in HT29 cells; format: cell-based; conditions: Homo sapiens, HT-29, read-out: IC50 for Inhibition of Cytokine Release, IL-8
Protocol: HT29 cells, a human colon adenocarcinoma cell line, are plated in a 96 well plate (24 hrs) and pre-treated with compounds at the desired concentration for 2 hours before addition of 5 ng/ml of IL-1β (Abeam) for 24 hours. Supernatants are harvested for IL-8 quantification by Sandwich ELISA (Duo-set, R&D System). The IC50 is determined from the dose response curve.

[2] = Cryopreserved hepatocyte stability, human; format: in vitro ADME; conditions: pooled cryopreserved hepatocytes, read-out: Mean intrinsic clearance
Protocol: (§1) Formulae Clint(tissue clearance) mL/min/kg=[0.693/t½ (min)]×[1/microsomal protein concentration mg/mL]×[mg microsomes/g liver]×[g liver/kg body weight] […] The incubations were performed at 37° C. with 100 μL, samples taken from the incubation, at 0, 10, 20, 45 and 90 minutes, and reactions terminated by addition of 100 μL of acetonitrile containing carbamazepine as analytical internal standard. […] Half-life values were calculated from the relationship T1/2 (min)=−0.693/λ • where λ was the slope of the Ln concentration vs time curve. • Standard compounds testosterone, midazolam and 4-methylumbelliferone are included in the assay design.
(§2) Clint(Tissue Clearance) mL/min/kg=[0.693/t½(min)]×[1/hepatocyte concentration (million cells/mL)]×[million cells/g liver]×[g liver/kg body weight] Clint(Hepatic clearance) mL/min/kg=hepatic blood flow×Clint/(hepatic blood flow+Clint) Hepatic extraction ratio(Eh)=Clint(Hepatic clearance) mL/min/kg/hepatic blood flow (mL/min/kg)

[3] = Pharmacokinetics and colon distribution in rats; format: in vivo, male Wistar rats; conditions: for concentration at 0.5 h: time cell blank (0.5 hr per method)
Protocol: 30 male Wistar rats were divided into two groups: Group I (p.o.: 5 mg/kg) and Group II (i.v.: 0.25 mg/kg). […] From each rat, blood samples (approximately 120 μL) were collected from retro orbital plexus such that samples were obtained at pre-dose, 0.05, 0.13, 0.25, 0.5, 1, 2, 4, 8, and 24 hr (i.v.) and pre-dose, 0.5, 1, 2, 4, 6, 8, 12 and 24 hr (p.o.). Immediately after collection, plasma was harvested from blood by centrifugation and stored at −70° C. until analysis. Following collection of blood sample, the animals (Group I) were humanely euthanized by carbon dioxide asphyxiation. The total colon was isolated, flushed with cold phosphate buffer saline (pH 7.4) to remove contents and weighed. The total colon tissues homogenized with ice-cold phosphate buffered saline, pH 7.4. Buffer volume to be used for homogenization was twice the weight of tissue. All the samples were stored below −70° C. until bioanalysis. Total colon tissue homogenate volume was three times. Plasma and total colon tissue samples were quantified by LC-MS/MS method (LLOQ in plasma and total colon tissue=0.5 ng/mL).

[4] = Cryopreserved hepatocyte stability, rat; format: in vitro ADME; conditions: pooled cryopreserved hepatocytes, read-out: Mean intrinsic clearance
Protocol: as §1, §2

primary macrophages = test: (e) LPS-induced cytokine release in primary macrophages; format: cell-based; conditions: Homo sapiens, Primary macrophage, assay (e)
Protocol: PBMCs from healthy subjects are separated from whole blood using a density gradient (Lymphoprep, Axis-Shield Healthcare). Cells are incubated for 2 hrs and non-adherent cells removed by washing. To differentiate the cells to macrophages the cells are incubated with 5 ng/ml of GM-CSF (Peprotech) for 7 days under normal tissue culture conditions. Compounds are then added to the cells at the desired concentration for a 2 hour pre-treatment before stimulation with 10 ng/ml LPS for 24 hours. […] The IC50 is determined from the dose response curve.

B-Raf = B-Raf (Homo sapiens (Human), UniProt P15056); test: KINOMEscan enzyme binding assay, B-Raf
Protocol: Kinase enzyme binding activities of compounds disclosed herein may be determined using a proprietary assay which measures active site-directed competition binding to an immobilized ligand (Fabian, M. A. et al., Nature Biotechnol., 2005, 23:329-336). These assays may be conducted by DiscoverX (formerly Ambit; San Diego, Calif.). The percentage inhibition produced by incubation with a test compound may be calculated relative to the non-inhibited control.

PBMCs = test: (c) IL-2 and IFN gamma release in CD3/CD28 stimulated PBMC cells; format: cell-based; conditions: Homo sapiens, read-out: IC50 for Inhibition of Cytokine Release, IFNγ
Protocol: PBMCs from healthy subjects are separated from whole blood using a density gradient (Lymphoprep, Axis-Shield Healthcare). Cells are added to a 96 well plate pre-coated with a mixture of CD3/CD28 monoclonal antibodies (0.3 ug/ml eBioscience and 3 ug/ml BD Pharmingen respectively). Compound at the desired concentration is then added to the wells and the plate left for 3 days under normal tissue culture conditions. […] The IC50 is determined from the dose response curve.

[5] = male, Wistar, colon, po, rat, 5 mg/kg p.o., read-out: Mean concentration, Colon
[6] = male, Wistar, plasma, po, rat, 5 mg/kg p.o., read-out: Mean concentration, Plasma
[7] = male, Wistar, plasma, Rat, 0.25 mg/kg intravenous
[8] = male, Wistar, po, Rat, 5 mg/kg p.o., Plasma
[9] = male, Wistar, po, Rat, 5 mg/kg p.o., Total colon

B-Raf, sequence (P15056 whole entry): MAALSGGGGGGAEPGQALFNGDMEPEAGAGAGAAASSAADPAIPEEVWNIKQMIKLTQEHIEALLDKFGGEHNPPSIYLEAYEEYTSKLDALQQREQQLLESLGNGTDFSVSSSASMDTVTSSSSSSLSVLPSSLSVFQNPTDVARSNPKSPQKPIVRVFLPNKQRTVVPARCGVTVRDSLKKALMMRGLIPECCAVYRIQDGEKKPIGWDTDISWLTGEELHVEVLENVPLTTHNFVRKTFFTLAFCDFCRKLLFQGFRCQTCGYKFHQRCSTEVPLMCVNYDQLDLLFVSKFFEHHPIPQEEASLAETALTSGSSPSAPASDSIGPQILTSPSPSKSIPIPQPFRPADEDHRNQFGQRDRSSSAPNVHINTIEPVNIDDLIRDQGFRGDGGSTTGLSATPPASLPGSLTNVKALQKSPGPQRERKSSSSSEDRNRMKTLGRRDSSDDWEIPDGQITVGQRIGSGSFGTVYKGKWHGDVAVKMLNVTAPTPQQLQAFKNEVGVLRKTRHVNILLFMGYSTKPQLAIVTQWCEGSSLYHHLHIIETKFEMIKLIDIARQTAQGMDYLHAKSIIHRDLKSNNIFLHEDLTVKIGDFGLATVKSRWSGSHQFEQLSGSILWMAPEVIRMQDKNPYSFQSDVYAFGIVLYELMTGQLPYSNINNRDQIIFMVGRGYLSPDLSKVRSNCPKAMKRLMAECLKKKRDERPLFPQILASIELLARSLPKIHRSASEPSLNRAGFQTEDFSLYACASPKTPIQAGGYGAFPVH

With `C#Cc1cc(Nc2nccc(Oc3ccc(NC(=O)Nc4cc(C(C)(C)C)nn4-c4ccc(C)cc4)c4ccccc34)n2)cc(C(=O)NCCOCCOCCOC)c1` [Example 2, 3-((4-((4-(3-(3-(tert-Butyl)-1-(p-tolyl)-1H-pyrazol-5-yl)ureido)naphthalen-1-yl)oxy)pyrimidin-2-yl)amino)-5-ethynyl-N-(2-(2-(2-methoxyethoxy)ethoxy)ethyl)-benzamide] the “total metabolites identified in all studies” value [1] was “nine”, the IC50 (HT29 cells) was 3.3 nM and the hepatocyte CLint at 0.1 μM [2] was 37 µL/min/1e6 cells. The Fpo ([3]; Rat, 5 mg/kg p.o., Plasma) was 0.04%, the concentration at 1 h [3, 5] was 1.9 ng/g and the concentration at 2 h [3, 5] was 4 ng/g. The concentration at 4 h [3, 5] was 339 ng/g, the concentration at 6 h [3, 5] was 1860 ng/g and the concentration at 8 h [3, 5] was 2000 ng/g. For the same molecule, the concentration at 12 h [3, 5] was 597 ng/g, the concentration at 24 h [3, 5] was 53.9 ng/g and the concentration at 0.5 h [3, 5] was 3.3 ng/g. It also gave a concentration at 1 h [3, 6] of 0.9 ng/mL, a concentration at 2 h [3, 6] of 0.6 ng/mL and a concentration at 4 h [3, 6] of 2.7 ng/mL. The concentration at 6 h [3, 6] was 1.7 ng/mL, the concentration at 8 h [3, 6] was 0.6 ng/mL and the concentration at 12 h [3, 6] was 0.7 ng/mL. For the same molecule, the concentration at 24 h [3, 6] was 1.8 ng/mL, the concentration at 0.5 h [3, 6] was 0.8 ng/mL and the AUC(0-inf) [3, 7] was 0.691 µg·h/mL. For the same molecule, the AUC(0-t) [3, 7] was 0.682 µg·h/mL, the C0 [3, 7] was 5360 ng/mL and the Vd [3, 7] was 0.3 L/kg. It also gave a clearance [3, 7] of 0.378 L/h/kg, a half-life [3, 7] of 2.2 h and an AUC(0-t) [3, 8] of 0.0048 µg·h/mL. For the same molecule, the Cmax [3, 8] was 2.7 ng/mL, the Tmax [3, 8] was 4 h and the AUC(0-inf) [3, 9] was 15.8 µg·h/mL. It also gave an AUC(0-t) [3, 9] of 15.5 µg·h/mL, a Cmax [3, 9] of 2000 ng/mL and a Tmax [3, 9] of 8 h. The “Mean concentration, Colon” value ([3]; rat, 5 mg/kg p.o., Pre-dose) was 0.0 ng/g, the “Mean concentration, Plasma” value ([3]; rat, 5 mg/kg p.o., Pre-dose) was 0 µg/mL and the hepatocyte CLint at 0.1 μM [4] was 49 µL/min/1e6 cells. For the same molecule, the IC50 (primary macrophages; read-out: IC50 for inhibition of release of IL-6) was 2.8 nM, the IC50 (primary macrophages; read-out: IC50 for inhibition of release of IL-8) was 2.1 nM and the “effect on the binding of B-Raf to its standard ligand” value (B-Raf) was “did not have any effect”. It also gave an IC50 (PBMCs) of 2.5 nM.
